{"source": "ChEMBL document CHEMBL3727364", "about": "“Resorcinol n-aryl amide compounds, for use as pyruvate dehydrogenase kinase inhibitors” (2015)"}
{"target": "[Pyruvate dehydrogenase (acetyl-transferring)] kinase isozyme 1, mitochondrial (Homo sapiens, UniProt Q15118)", "sequence (Q15118 whole entry)": "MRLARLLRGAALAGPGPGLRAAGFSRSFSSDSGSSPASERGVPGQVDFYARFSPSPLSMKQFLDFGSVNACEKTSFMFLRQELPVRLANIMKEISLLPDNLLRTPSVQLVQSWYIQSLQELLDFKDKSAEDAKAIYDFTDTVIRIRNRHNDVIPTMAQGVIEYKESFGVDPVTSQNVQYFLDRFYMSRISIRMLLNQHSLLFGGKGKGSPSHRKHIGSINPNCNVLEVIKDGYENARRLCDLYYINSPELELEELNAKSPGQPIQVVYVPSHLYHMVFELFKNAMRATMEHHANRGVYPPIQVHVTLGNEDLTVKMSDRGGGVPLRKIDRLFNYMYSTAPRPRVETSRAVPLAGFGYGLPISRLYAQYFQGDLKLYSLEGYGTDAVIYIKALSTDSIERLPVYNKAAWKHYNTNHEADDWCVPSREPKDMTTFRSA", "experiment": "Binding affinity to pyruvate dehydrogenase kinase 1 (unknown origin) incubated for 90 mins by VER-00160364 probe based fluorescence polarization assay", "conditions": "not given", "units": {"IC50": "nM"}}
{"compound": "CN(C)C(=O)c1ccc(N(Cc2cccc3c2cnn3C)C(=O)c2ccc(O)cc2O)cc1", "IC50": 100}
{"compound": "CN(Cc1ccc2nccnc2c1)C(=O)c1ccc(N(Cc2ccsc2)C(=O)c2ccc(O)cc2O)cc1", "IC50": 10}
{"compound": "COc1cnc(Cl)nc1-c1ccc(N(Cc2cccnc2)C(=O)c2ccc(O)cc2O)cc1", "IC50": 10}
{"compound": "Cc1cc(S(=O)(=O)NCc2cccs2)cnc1-c1ccc(N(Cc2cccnc2)C(=O)c2ccc(O)cc2O)cc1", "IC50": 10}
{"compound": "CN(C)C(=O)c1ccc(N(CC2CCCC2)C(=O)c2ccc(O)cc2O)cc1", "IC50": 100}
{"compound": "CN(C)C(=O)c1ccc(N(Cc2csc3ccc(Cl)cc23)C(=O)c2cc(Cl)c(O)cc2O)cc1", "IC50": 1000}
{"compound": "COC(=O)c1nc(-c2ccc(N(Cc3ccsc3)C(=O)c3ccc(O)cc3O)cc2)c2ccccc2n1", "IC50": 100}
{"compound": "Cc1cc(S(=O)(=O)N2CCOCC2)cnc1-c1ccc(N(Cc2ccsc2)C(=O)c2ccc(O)cc2O)cc1", "IC50": 100}
{"compound": "CN(C)C(=O)c1ccc(N(Cc2ccccn2)C(=O)c2cc(Cl)c(O)cc2O)cc1", "IC50": 100}
{"compound": "CN(C)C(=O)c1ccc(N(Cc2c[nH]cn2)C(=O)c2cc(Cl)c(O)cc2O)cc1", "IC50": 1000}
{"compound": "CN(C)C(=O)c1ccc(N(Cc2nc3ccccc3[nH]2)C(=O)c2cc(Cl)c(O)cc2O)cc1", "IC50": 1000}
{"compound": "Cc1cnc(Cl)nc1-c1ccc(N(Cc2cccnc2)C(=O)c2ccc(O)cc2O)cc1", "IC50": 10}
{"compound": "CN(C)C(=O)c1ccc(N(Cc2ccn(C)n2)C(=O)c2ccc(O)cc2O)cc1", "IC50": 100}
{"compound": "CN(C)C(=O)c1ccc(N(CC2CCCC2)C(=O)c2cc(Cl)c(O)cc2O)cc1", "IC50": 100}
{"target": "Pyruvate dehydrogenase kinase (Homo sapiens, UniProt Q15119+Q15120+Q16654+Q15118)", "experiment": "Inhibition of pyruvate dehydrogenase kinase in human PC3 cells incubated for 90 mins by phospho(Ser293)E1alpha MSP ELISA method", "assay_type": "cell-based", "conditions": "pc-3", "units": {"IC50": "nM"}}
{"compound": "COc1cnc(Cl)nc1-c1ccc(N(Cc2cnsc2)C(=O)c2ccc(O)cc2O)cc1", "IC50": 1000}
{"compound": "Cc1cnc(Cl)nc1-c1ccc(N(Cc2cccc(CN(C)C)c2)C(=O)c2ccc(O)cc2O)cc1", "IC50": 1000}
{"compound": "Cc1cc(S(=O)(=O)NCc2cccs2)cnc1-c1ccc(N(Cc2cnsc2)C(=O)c2ccc(O)cc2O)cc1", "IC50": 1000}
{"compound": "CN(Cc1ccc2nccnc2c1)C(=O)c1ccc(N(Cc2ccsc2)C(=O)c2ccc(O)cc2O)cc1", "IC50": 1000}
{"compound": "Cc1cc(C(=O)N(Cc2ccccc2)c2ccc(C(=O)N(C)C)cc2)c(O)cc1O", "IC50": 1000}
{"compound": "COc1cnc(Cl)nc1-c1ccc(N(Cc2cccnc2)C(=O)c2ccc(O)cc2O)cc1", "IC50": 1000}
{"compound": "Cc1cc(S(=O)(=O)NCc2cccs2)cnc1-c1ccc(N(Cc2cccnc2)C(=O)c2ccc(O)cc2O)cc1", "IC50": 1000}
{"compound": "COC1CCN(Cc2ccc(CN(C(=O)c3ccc(O)cc3O)c3ccc(-c4nc(Cl)ncc4C)cc3)cc2)C1", "note": "(stereo not drawn)", "IC50": 100}
{"compound": "Cc1cnc(Cl)nc1-c1ccc(N(Cc2cccc(Cl)c2)C(=O)c2ccc(O)cc2O)cc1", "IC50": 100}
{"compound": "Cc1cc2ccccc2nc1-c1ccc(N(Cc2ccc(OCCN3CCCC3)cc2)C(=O)c2ccc(O)cc2O)cc1", "IC50": 1000}
{"compound": "Cc1cnc(Cl)nc1-c1ccc(N(Cc2cccc(OCCN3CCOCC3)c2)C(=O)c2ccc(O)cc2O)cc1", "IC50": 1000}
{"compound": "Cc1cnc(Cl)nc1-c1ccc(N(Cc2ccc(CN3CCC(F)(F)C3)cc2)C(=O)c2ccc(O)cc2O)cc1", "IC50": 100}
{"compound": "Cc1cnc(Cl)nc1-c1ccc(N(Cc2ccc(CNC(=O)C3CCC3)cc2)C(=O)c2ccc(O)cc2O)cc1", "IC50": 100}
{"compound": "Cc1cnc(Cl)nc1-c1ccc(N(Cc2cccc(OCCN(C)C)c2)C(=O)c2ccc(O)cc2O)cc1", "IC50": 1000}
{"compound": "CCN(CC)CCOc1ccc(CN(C(=O)c2ccc(O)cc2O)c2ccc(-c3nc4ccccc4cc3C)cc2)cc1", "IC50": 1000}
{"compound": "CCc1cnc(C)nc1-c1ccc(N(Cc2ccsc2)C(=O)c2ccc(O)cc2O)cc1", "IC50": 1000}
{"compound": "Cc1cnc(Cl)nc1-c1ccc(N(Cc2ccc(CNC(=O)[C@H](C)NC(=O)OCc3ccccc3)cc2)C(=O)c2ccc(O)cc2O)cc1", "IC50": 100}
{"compound": "COC(=O)c1nc(-c2ccc(N(Cc3ccsc3)C(=O)c3ccc(O)cc3O)cc2)c2ccccc2n1", "IC50": 1000}
{"compound": "Cc1cc(S(=O)(=O)N2CCOCC2)cnc1-c1ccc(N(Cc2ccsc2)C(=O)c2ccc(O)cc2O)cc1", "IC50": 1000}
{"compound": "Cc1cnc(Cl)nc1-c1ccc(N(Cc2cccc(CN3CCCCC3)c2)C(=O)c2ccc(O)cc2O)cc1", "IC50": 1000}
{"compound": "Cc1cc(C(=O)N(Cc2ccccc2)c2ccc(C(=O)N(C)Cc3ccc4nccnc4c3)cc2)c(O)cc1O", "IC50": 1000}
{"compound": "Cc1cnc(Cl)nc1-c1ccc(N(Cc2ccc(CNC(=O)c3cccs3)cc2)C(=O)c2ccc(O)cc2O)cc1", "IC50": 100}
{"compound": "Cc1cc(S(=O)(=O)NCc2ccccn2)cnc1-c1ccc(N(Cc2ccsc2)C(=O)c2cc(Cl)c(O)cc2O)cc1", "IC50": 1000}
{"compound": "Cc1cnc(Cl)nc1-c1ccc(N(Cc2cccnc2)C(=O)c2ccc(O)cc2O)cc1", "IC50": 1000}
